Patent US8133849B2, “Herbicidal compounds” (Syngenta Limited, priority 2007, dated 2012)

Key:
Assay in all cases: Example B2 herbicidal action, post-emergence, pots in glasshouse, damage score 0-10
Type in all cases: in vivo
Settings in all cases: application post-emergence, rate 1000 g/ha, evaluated after 13 days
[1] = system: Echinochloa crus-galli
Experimental: (§1) Seeds of a variety of test species were sown in standard soil in pots. After 8 days cultivation (post-emergence) under controlled conditions in a glasshouse (at 24/16° C., day/night; 14 hours light; 65% humidity), the plants were sprayed with an aqueous spray solution derived from the formulation of the technical active ingredient in acetone/water (50:50) solution containing 0.5% Tween 20 (polyoxyethelyene sorbitan monolaurate, CAS RN 9005-64-5). The test plants were then grown in a glasshouse under controlled conditions in a glasshouse (at 24/16° C., day/night; 14 hours light; 65% humidity) and watered twice daily. After 13 days, the test was evaluated (10=total damage to plant; 0=no damage to plant).

[2] = system: Setaria faberi
Experimental: as §1

[3] = system: Amaranthus retroflexus
Experimental: as §1

[4] = system: Solanum nigrum
Experimental: as §1

[5] = system: Ipomea hederaceae
Experimental: as §1

Compound	ECHCG damage score (10=total damage to plant; 0=no damage to plant) [1]	SETFA damage score (10=total damage to plant; 0=no damage to plant) [2]	AMARE damage score (10=total damage to plant; 0=no damage to plant) [3]	SOLNI damage score (10=total damage to plant; 0=no damage to plant) [4]	IPOHE damage score (10=total damage to plant; 0=no damage to plant) [5]
CC(C)C(=O)OC1=C(c2ccc(Cl)cc2Cl)S(=O)(=O)N(CC(F)(F)F)c2nccnc21 [Compound C57]	4	3	10	10	10
CCN1c2nccnc2C(OC(=O)C(C)(C)C)=C(c2ccccc2C(F)(F)F)S1(=O)=O [Compound C64]	5	3	4	5	6
CC(C)(C)C(=O)OC1=C(c2c(Cl)cccc2C(F)(F)F)S(=O)(=O)N(CC(F)F)c2nccnc21 [Compound C31]	8	7	8	9	8
CC(C)C(=O)OC1=C(c2ccccc2[N+](=O)[O-])S(=O)(=O)N(CC(F)F)c2nccnc21 [Compound C65]	0	2	2	2	1
CCN1c2nccnc2C(OC(=O)C(C)(C)C)=C(c2cc(F)c(Cl)cc2Cl)S1(=O)=O [Compound C45]	4	1	0	7	9
CS(=O)(=O)OC1=C(c2cc(C(F)(F)F)ccc2Cl)S(=O)(=O)N(CC(F)F)c2nccnc21 [Compound C83, methanesulfonic acid 3-(2-chloro-5-trifluoromethyl-phenyl)-1-(2,2-difluoro-ethyl)-2,2-dioxo-1,2-dihydro-2-λ-6-thia-1,5,8-triaza-naphthalen-4-yl ester]	7	1	9	10	10
CCN1c2nccnc2C(O)=C(c2c(F)ccc(Br)c2Cl)S1(=O)=O [Compound D13]	5	2	8	9	9
CC(C)C(=O)OC1=C(c2c(Br)cccc2Br)S(=O)(=O)N(CC(F)F)c2nccnc21 [Compound C49]	8	6	9	9	9
O=S1(=O)C(c2ccccc2Br)=C(O)c2nccnc2N1CC(F)F [Compound D18]	4	5	10	10	10
CCSC(=O)OC1=C(c2c(Cl)cccc2C(F)(F)F)S(=O)(=O)N(CC(F)F)c2nccnc21 [Compound C105]	9	9	10	9	8
CCN1c2nccnc2C(OC(=O)C(C)C)=C(c2ccccc2OC(F)(F)F)S1(=O)=O [Compound C13]	10	3	10	9	10
O=C(OC1=C(c2c(Cl)ccc(Cl)c2Cl)S(=O)(=O)N(CC(F)F)c2nccnc21)Sc1ccccc1 [Compound C126]	7	4	9	9	7
CC(C)(C)C(=O)OC1=C(c2cc(C(F)(F)F)ccc2Cl)S(=O)(=O)N(CC(F)F)c2nccnc21 [Compound C34, 2,2-dimethyl-propionic acid 3-(2-chloro-5-trifluoromethyl-phenyl)-1-(2,2-difluoro-ethyl)-2,2-dioxo-1,2-dihydro-2-λ-6-thia-1,5,8-triaza-naphthalen-4-yl ester]	7	2	7	9	10
CC#CCN1c2nccnc2C(O)=C(c2c(Cl)ccc(Cl)c2C(F)(F)F)S1(=O)=O [Compound D48]	0	0	3	8	7
CCN1c2nccnc2C(O)=C(c2ccccc2[N+](=O)[O-])S1(=O)=O [Compound D34]	0	1	0	1	2
CC(C)C(=O)OC1=C(c2cc(C(F)(F)F)ccc2Cl)S(=O)(=O)N(CC(F)F)c2nccnc21 [Compound C91]	6	3	9	9	10
CCSC(=O)OC1=C(c2cc(F)c(Cl)cc2Cl)S(=O)(=O)N(CC(F)F)c2nccnc21 [Compound C88]	6	4	9	9	9
CC(C)(C)C(=O)OC1=C(c2cc(F)c(Cl)cc2Cl)S(=O)(=O)N(CC(F)F)c2nccnc21 [Compound C47]	4	7	10	10	7
O=S1(=O)C(c2ccccc2I)=C(O)c2nccnc2N1CC(F)F [Compound D44]	9	6	10	10	10
CCN1c2nccnc2C(OS(=O)(=O)C(F)(F)F)=C(c2ccc(Cl)cc2C(F)(F)F)S1(=O)=O [Compound C29, trifluoromethanesulfonic acid-3-(4-chloro-2-trifluoromethylphenyl)-1-ethyl-2,2-dioxo-1,2-dihydro-2-λ-6-thia-1,5,8-triaza-naphthalen-4-yl ester]	4	0	2	5	5
CC(C)C(=O)OC1=C(c2ccccc2C(F)(F)F)S(=O)(=O)N(CCCl)c2nccnc21 [Compound C121]	0	2	0	5	1
CC(C)C(=O)OC1=C(c2cccc(Cl)c2Cl)S(=O)(=O)N(CC(F)F)c2nccnc21 [Compound C102]	0	0	1	7	6
CCN1c2nccnc2C(OC(=O)C(C)C)=C(c2ccccc2SC(F)(F)F)S1(=O)=O [Compound C19, isobutyric acid 1-ethyl-2,2-dioxo-3-(2-trifluoromethyl-sulfanyl-phenyl)-1,2-dihydro-2-λ-6-thia-1,5,8-triaza-naphthalen-4-yl ester]	4	0	9	6	8
